Columns and labels:
MRSA (ATCC 43300) = details: 20 days, increasing sub-lethal concentrations
Description: A resistance induction assay was conducted for vancomycin, daptomycin, compound 17 and compound 24 [43].
S. aureus ATCC®43300™ was grown in Mueller Hinton broth supplemented with 50 µg mL^−1 of CaCl2. The bacterial culture was incubated at 37 °C in a shaker at 195 rpm.
The mid log S. aureus growth culture was serially diluted and plated on a solid LB agar plates in quadruplicates and incubated at 37 °C overnight to determine viable colony count.
The initial determination of the compound MICs were taken from the literature and empirically measured. […] The plate was then incubated at 37 °C overnight.
After overnight incubation, the growth of the S. aureus (MRSA) culture was determined by reading at OD600 on the Epoch microplate spectrophotometer and 0.1 OD600 was the chosen cut-off determining growth vs. no growth.

[1] = Critical micelle concentration assay; format: physicochemical; details: 0.2 M NaCl, DPH
Description: CMCs were determined as previously described[46] with a higher throughput modification. Briefly, a cascade dilution of each antibiotic was performed in a low binding polypropylene V-bottom shaped 96-well plates in the presence of 0.2 M NaCl solution across 12 concentrations ranging from 1000 to 0.1 μM, except the control melittin (100 to 0.01 μM). An identical cascade dilution was performed for the neutral detergent Triton X-100 and the anionic detergent sodium dodecyl sulphate (SDS) starting from 0.1% down to 0.00001% (vol:vol for Triton X-100 and wt:vol for SDS). An aliquot of […] (DPH) in DMSO was added in each well to yield the final DPH concentration of 5 μM. The reaction mixtures were mixed for 30 s and transferred in horizontal triplicate (25 μL per well) into a black falcon 384-well plate. The 384-well plate was then sealed, wrapped up in aluminium foil and incubated for 30 min at room temperature. The fluorescence intensity was monitored in real time using a BMG Labtech PolarStar Omega multimode reader fitted with 360-10 and 430-10 excitation and emission filters respectively, at an excitation wavelength of 360 nm and an emission wavelength of 430 nm.

[2] = test system: cell-free particulate fraction of Bacillus megaterium KM (ATCC 13632); experiment: Cell-free peptidoglycan inhibition assay; format: biochemical; details: cell free radiolabelled synthesis assay
Description: The cell-free particulate fraction of Bacillus megaterium KM (ATCC®13632™) was used to catalyse the polymerisation of peptidoglycan from UPD-linked precursors in vitro following literature procedures. B. megaterium was grown in the medium containing 1% (w/v) tryptone (Difco-Bacto), 0.5% (w/v) yeast extract (Difco-Bacto), 0.25% (w/v) K2HPO4 and 0.5% (w/v) glucose with pH 7.2. Bacteria were harvested when the density had reached to 0.4 mg dry weight mL^−1 and washed in the buffer 0.05 M Tris-HCl (pH 7.8) containing 10 mM MgCl2 by centrifugation at 6000 × g for 10 min at 4 °C. All subsequent manipulations were carried out on ice. The bacteria were resuspended in the same buffer at a density of 50 mg dry weight mL^−1, and then subjected to three freeze/thaw cycles. Bacteria were then homogenised by using a glass homogeniser at 4 °C (2 × 10 min). The broken cell suspension was centrifuged at 6000 × g for 10 min at 4 °C. […] Integrated density value (IDV) of each band on silica gel was analysed using AlphaEase FC software (AlphaImager 2200). The change of peptidoglycan or Lipid II were calculated as percent from the IDV values of the control (without any antibiotic or compound).

HepG2 cells = experiment: Cytotoxicity MTT assay; format: cell-based, human
[3] = test system: S. pneumoniae (ATCC 6301); experiment: S. pneumoniae lung infection in vivo efficacy model (mice); design: species or system Streptococcus pneumoniae; details: 25 mg kg^−1 SC qd, 10 days
Description: The study objective was to evaluate the antimicrobial activity of test articles in a lung infection model with S. pneumoniae (ATCC® 6301™). Male ICR mice were inoculated intratracheally (IT) with S. pneumoniae at an inoculum size of 2.96 × 10^6 CFU per mouse (20 µL per mouse). […] The reference standard, vancomycin 1, was dosed at 25 mg kg^−1 qd SC at 2 h after IT inoculation. […] An increase in survival rate of 50 percent or more ( ≥ 50%) of the treated animals relative to the vehicle group indicates significant antimicrobial activity.
Test substances at 25 mg kg^−1 were each administered subcutaneously (SC) to test animals 2 h after inoculation. The dosing volume was 10 mL kg^−1.
Vehicle (10 mL kg^−1), vancomycin and test substances at 25 mg kg^−1 were each administered subcutaneously 2 h post-infection. Mortality was recorded daily for 10 days following inoculation. Increase of 50 percent or more (≥ 50%) in survival rate relative to the vehicle control group indicates significant anti-infective activity.

MRSA (Strain ATCC 43300) = experiment: MRSA thigh infection in vivo efficacy model (neutropenic mice); design: species or system Staphylococcus aureus; details: single 25 mg kg^−1 SC dose
Description: Thighs were then removed, weighed and homogenised in a fixed volume of saline.
Untreated animals received equivalent volume of saline (Baxter). […] For each mouse, both thighs were collected aseptically by cutting the leg at the hip and knee, placed in 10 mL of cold sterile saline and the individual weight of each thigh recorded.

## CCCCCCCCCCCCCC(=O)N[C@@H](CCCCN)C(=O)N[C@@H](CCCCN)C(=O)N[C@@H](CCCCN)C(=O)N[C@@H](CCCCNC(=O)[C@H]1NC(=O)[C@H]2NC(=O)[C@H](NC(=O)[C@@H]3NC(=O)[C@H](CC(N)=O)NC(=O)[C@H](NC(=O)[C@@H](CC(C)C)NC)[C@H](O)c4ccc(c(Cl)c4)Oc4cc3cc(c4O[C@@H]3O[C@H](CO)[C@@H](O)[C@H](O)[C@H]3O[C@H]3C[C@](C)(N)[C@H](O)[C@H](C)O3)Oc3ccc(cc3Cl)[C@H]2O)c2ccc(O)c(c2)-c2c(O)cc(O)cc21)C(=O)O [Compound 17, nC13CO-KKK-K(Vancomycin)-OH]
MRSA (ATCC 43300)
  Induced resistance on serial culture: low levels of resistance compared to daptomycin
[1]
  critical micelle concentration (CMC): exceed 100 µM
[2]
  Peptidoglycan formation, 14C-GlcNAc incorporation: inhibited peptidoglycan formation

## CN[C@H]1C(=O)N[C@@H]2Cc3ccc(cc3)Oc3cc4cc(c3O[C@@H]3O[C@H](C(=O)O)[C@@H](O)[C@H](O)[C@H]3NC(=O)CCCCCCCCC(C)C)Oc3ccc(cc3Cl)[C@@H](O)[C@@H]3NC(=O)[C@H](NC(=O)[C@@H]4NC(=O)[C@@H](NC2=O)c2cc(cc(O)c2Cl)Oc2cc1ccc2O)c1ccc(O)c(c1)-c1c(O[C@H]2O[C@H](CO)[C@@H](O)[C@H](O)[C@@H]2O)cc(O)cc1[C@@H](C(=O)NCCCN(C)C)NC3=O [Compound 3, Dalbavancin]
HepG2 cells
  CC50: 259 µM

## CN[C@H](CC(C)C)C(=O)N[C@H]1C(=O)N[C@@H](CC(N)=O)C(=O)N[C@H]2C(=O)N[C@H]3C(=O)N[C@H](C(=O)N[C@H](C(=O)O)c4cc(O)cc(O)c4-c4cc3ccc4O)[C@H](O)c3ccc(c(Cl)c3)Oc3cc2cc(c3O[C@@H]2O[C@H](CO)[C@@H](O)[C@H](O)[C@H]2O[C@H]2C[C@](C)(N)[C@H](O)[C@H](C)O2)Oc2ccc(cc2Cl)[C@H]1O [Compound 1, Vancomycin]
[3]
  survival rate relative to the vehicle control: ≥ 50%
MRSA (Strain ATCC 43300)
  Efficacy in thigh infection model: almost inactive
